Results taken from PMC7181131, “N-Pyrazinoyl Substituted Amino Acids as Potential Antimycobacterial Agents—the Synthesis and Biological Evaluation of Enantiomers” (Molecules, 2020).
Converted amounts (≈) assume the structure as drawn. Where two headings read alike, the source gives them in different places.

Experiments:
[1] = tested on: Aspergillus flavus CCM 8363; assay: Antifungal microdilution broth method, AFla; assay type: cell-based; conditions: CCM8363, read after 48 h (filamentous fungi), read-out: MIC AFla
Experimental: 6. In vitro antifungal activity screening
Antifungal activity evaluation was performed using a microdilution broth method according to EUCAST instructions (The European Committee on Antimicrobial Susceptibility Testing) with slight modifications. Eight fungal strains (four yeast and four mould strains) were used for antifungal […]
and Trichophyton interdigitale CCM 8377 (ATCC 9533). Tested strains were purchased from the Czech Collection of Microorganisms (CCM, Brno, Czech Republic) or from the American Type Collection Cultures (ATCC, Manassas, VA, USA). Tested compounds were dissolved in DMSO and diluted in a twofold manner with RPMI 1640 medium, with glutamine and 2% glucose, buffered to pH 7.0 with MOPS (3-morpholinopropane-1-sulfonic acid). The final concentration of DMSO in the testing […]
Static incubation was performed in the dark and in humid atmosphere, at 35±2 °C, for 24 and 48 h (72 and 120 h for Trichophyton interdigitale respectively). Positive controls consisted of test microbe solely, while negative controls consisted of cultivation medium and DMSO. Visual inspection and metabolic activity indicator, Alamar Blue (ThermoFisher Scientific), were used for MIC endpoint evaluation. The internal quality standards, amphotericin B (Sigma-Aldrich) and voriconazole (Toronto research Chemicals, CA) were involved in assays (for MIC of standards see Table S5). All experiments were conducted in duplicates.
For the results to be valid, the difference in MIC for one compound determined from two parallel measurements must not be greater than one step on the dilution scale.

[2] = tested on: Mtb H37Ra ITM-M006710 (ATCC 9431); assay: Microplate Alamar Blue Assay (MABA) microdilution, Mtb H37Ra; assay type: cell-based, Mycobacterium tuberculosis; conditions: Mycobacterium tuberculosis
[3] = tested on: Klebsiella pneumoniae CCM 4415 (ATCC 10031); assay: Antibacterial microdilution broth method, KP; conditions: read after 24 h of incubation
[4] = tested on: Staphylococcus epidermidis CCM 4418 (ATCC 12228); assay: Antibacterial microdilution broth method, SE; assay type: cell-based; conditions: 24 h, read-out: MIC SE
[5] = tested on: Candida tropicalis CCM 8264 (ATCC 750); assay: Antifungal microdilution broth method, CT; assay type: cell-based; conditions: 24 h, read-out: MIC CT
[6] = tested on: Candida parapsilosis CCM 8260 (ATCC 22019); assay: Antifungal microdilution broth method, CP; assay type: cell-based; conditions: Lodderomyces parapsilosis, 24 h, read-out: MIC CP
[7] = tested on: Lichtheimia corymbifera CCM 8077; assay: Antifungal microdilution broth method, LC; assay type: cell-based; conditions: CCM8077, 48 h, read-out: MIC LC
[8] = tested on: Candida krusei CCM 8271 (ATCC 6258); assay: Antifungal microdilution broth method, CK; assay type: cell-based; conditions: Pichia kudriavzevii, 24 h, read-out: MIC CK
[9] = tested on: Trichophyton interdigitale CCM 8377 (ATCC 9533); assay: Antifungal microdilution broth method, TI; assay type: cell-based; conditions: 48 h, read-out: MIC TI
[10] = tested on: Candida albicans CCM 8320 (ATCC 24433); assay: Antifungal microdilution broth method, CA; assay type: cell-based; conditions: 24 h, read-out: MIC CA
[11] = tested on: Mycobacterium aurum DSM 43999 (ATCC 23366); assay: Microplate Alamar Blue Assay (MABA) microdilution, M. aurum; assay type: cell-based; conditions: Mycolicibacterium aurum
[12] = tested on: M. smegmatis DSM 43465 (ATCC 607); assay: Microplate Alamar Blue Assay (MABA) microdilution, M. smegmatis; assay type: cell-based, Mycobacterium smegmatis; conditions: Mycolicibacterium smegmatis
[13] = tested on: Aspergillus fumigatus ATCC 204305; assay: Antifungal microdilution broth method, AF; assay type: cell-based; conditions: ATCC204305, 48 h, read-out: MIC AF
[14] = pH 6.6, read-out: MIC Mtb H37Ra
[15] = pH 6, calculated from µg/mL, read-out: MIC Mtb H37Ra
[16] = pH 6, read-out: MIC M. aurum µg/mL
[17] = pH 6, read-out: MIC M. smegmatis µg/mL
[18] = pH 6.6, read-out: MIC M. smegmatis

| SMILES | MIC [1] [µM] | MIC ([2]; pH 6) [µg/mL] | MIC ([2]; pH 6, read-out: MIC Mtb H37Ra) [µg/mL] | MIC [2, 14] [µg/mL] | MIC [2, 15] [µM] | MIC KP [3] [µM] | MIC [4] [µM] | MIC [5] [µM] | MIC [6] [µM] | MIC [7] [µM] | MIC [8] [µM] | MIC [9] [µM] | MIC [10] [µM] | MIC [11, 16] [µg/mL] | MIC ([11]; pH 6.6, read-out: MIC M. aurum) [µg/mL] | MIC [12, 17] [µg/mL] | MIC [12, 18] [µg/mL] | MIC [13] [µM] |
| --- | --- | --- | --- | --- | --- | --- | --- | --- | --- | --- | --- | --- | --- | --- | --- | --- | --- | --- |
| COC(=O)[C@@H](COC(C)(C)C)NC(=O)c1cnccn1 [PC-D-OtBu-Ser-Me, methyl O-(tert-butyl)-N-(pyrazine-2-carbonyl)-D-serinate] | > 500 | ≥ 500 | ≥ 500 | ≥ 500 | ≥ 1780 | > 500 | > 500 | > 500 | > 500 | > 500 | > 500 | > 500 | > 500 | ≥ 500 | ≥ 500 | ≥ 500 | ≥ 500 | > 500 |
| COC(=O)[C@H](NC(=O)c1cnccn1)C(C)C [PC-D-Val-Me, methyl (pyrazine-2-carbonyl)-D-valinate] | > 500 | ≥ 125 | ≥ 125 | ≥ 500 | ≥ 527 | > 500 | > 500 | > 500 | > 500 | > 500 | > 500 | > 500 | > 500 | ≥ 125 | ≥ 500 | ≥ 125 | ≥ 500 | > 500 |
| COC(=O)CC[C@@H](NC(=O)c1cnccn1)C(=O)OC [PC-D-Glu-diMe, dimethyl (pyrazine-2-carbonyl)-D-glutamate] | > 500 | ≥ 500 | ≥ 500 | ≥ 500 | ≥ 1780 | > 500 | > 500 | > 500 | > 500 | > 500 | > 500 | > 500 | > 500 | ≥ 500 | ≥ 500 | ≥ 500 | ≥ 500 | > 500 |
| COC(=O)[C@@H](NC(=O)c1cnccn1)[C@@H](C)O [PC-L-Thr-Me, methyl (pyrazine-2-carbonyl)-L-threoninate] | > 500 | ≥ 500 | ≥ 500 | ≥ 500 | ≥ 2090 | > 500 | > 500 | > 500 | > 500 | > 500 | > 500 | 500 (≈ 120 µg/mL) | > 500 | ≥ 500 | ≥ 500 | ≥ 500 | ≥ 500 | > 500 |
| O=C(N[C@@H](COCc1ccccc1)C(=O)O)c1cnccn1 [PC-L-OBn-Ser, O-benzyl-N-(pyrazine-2-carbonyl)-L-serine] | > 500 | ≥ 500 | ≥ 500 | ≥ 500 | ≥ 1660 | > 500 | > 500 | > 500 | > 500 | > 500 | > 500 | > 500 | > 500 | 62.5 (≈ 207 µM) | ≥ 500 | 250 (≈ 830 µM) | ≥ 500 | > 500 |
| CCOC(=O)C[C@H](NC(=O)c1cnccn1)C(=O)OCC [PC-L-Asp-diEt, diethyl (pyrazine-2-carbonyl)-L-aspartate] | > 500 | ≥ 125 | ≥ 125 | ≥ 500 | ≥ 423 | > 500 | 500 (≈ 148 µg/mL) | > 500 | > 500 | > 500 | > 500 | > 500 | > 500 | ≥ 125 | ≥ 500 | ≥ 125 | ≥ 500 | > 500 |
| COC(=O)[C@H](COC(C)(C)C)NC(=O)c1cnccn1 [PC-L-OtBu-Ser-Me, methyl O-(tert-butyl)-N-(pyrazine-2-carbonyl)-L-serinate] | > 500 | ≥ 500 | ≥ 500 | ≥ 500 | ≥ 1780 | > 500 | > 500 | > 500 | > 500 | > 500 | > 500 | > 500 | > 500 | 62.5 (≈ 222 µM) | ≥ 500 | 250 (≈ 889 µM) | ≥ 500 | > 500 |
| CCOC(=O)CC[C@H](NC(=O)c1cnccn1)C(=O)OCC [PC-L-Glu-diEt, diethyl (pyrazine-2-carbonyl)-L-glutamate] | > 500 | 31.2 | 31.2 | ≥ 500 | 101 | > 500 | > 500 | > 500 | > 500 | > 500 | > 500 | > 500 | > 500 | ≥ 500 | ≥ 500 | ≥ 500 | ≥ 500 | > 500 |
| COC(=O)[C@@H](Cc1ccc(O)cc1)NC(=O)c1cnccn1 [PC-D-Tyr-Me, methyl (pyrazine-2-carbonyl)-D-tyrosinate] | > 500 | 125 | 125 | ≥ 500 | 415 | > 500 | > 500 | > 500 | > 500 | > 500 | > 500 | > 500 | > 500 | ≥ 250 | ≥ 500 | ≥ 500 | ≥ 500 | > 500 |
| COC(=O)[C@@H](CO)NC(=O)c1cnccn1 [PC-D-Ser-Me, methyl (pyrazine-2-carbonyl)-D-serinate] | > 500 | 250 | 250 | ≥ 500 | 1110 | > 500 | > 500 | > 500 | > 500 | > 500 | > 500 | > 500 | > 500 | 250 (≈ 1110 µM) | ≥ 500 | ≥ 500 | ≥ 500 | > 500 |
| COC(=O)[C@@H](NC(=O)c1cnccn1)C(C)C [PC-L-Val-Me, methyl (pyrazine-2-carbonyl)-L-valinate] | > 500 | ≥ 125 | ≥ 125 | ≥ 500 | ≥ 527 | > 500 | > 500 | > 500 | > 500 | > 500 | > 500 | > 500 | > 500 | ≥ 125 | ≥ 500 | ≥ 125 | 250 (≈ 1050 µM) | > 500 |
| COC(=O)[C@H](NC(=O)c1cnccn1)[C@H](C)O [PC-D-Thr-Me, methyl (pyrazine-2-carbonyl)-D-threoninate] | > 500 | ≥ 500 | ≥ 500 | ≥ 500 | ≥ 2090 | > 500 | > 500 | > 500 | > 500 | > 500 | > 500 | > 500 | > 500 | ≥ 500 | ≥ 500 | ≥ 500 | ≥ 500 | > 500 |
